Measured values published in patent publication US7531533B2, “6-Membered heterocyclic compound and use thereof” (Asahi Kasei Pharma Corporation, priority 2005, dated 2009).

What follows are compounds tested against T1, human EP4 receptor (Homo sapiens, UniProt P35408) (assay: Agonist activity measurement (cAMP production) using human EP4 receptor expressing HEK293 cells). Conditions: test compound concentration of 10 μM, HEK293 stably expressing human EP4.
T1 construct: expressed in transfected cells
T1 sequence (P35408 whole entry): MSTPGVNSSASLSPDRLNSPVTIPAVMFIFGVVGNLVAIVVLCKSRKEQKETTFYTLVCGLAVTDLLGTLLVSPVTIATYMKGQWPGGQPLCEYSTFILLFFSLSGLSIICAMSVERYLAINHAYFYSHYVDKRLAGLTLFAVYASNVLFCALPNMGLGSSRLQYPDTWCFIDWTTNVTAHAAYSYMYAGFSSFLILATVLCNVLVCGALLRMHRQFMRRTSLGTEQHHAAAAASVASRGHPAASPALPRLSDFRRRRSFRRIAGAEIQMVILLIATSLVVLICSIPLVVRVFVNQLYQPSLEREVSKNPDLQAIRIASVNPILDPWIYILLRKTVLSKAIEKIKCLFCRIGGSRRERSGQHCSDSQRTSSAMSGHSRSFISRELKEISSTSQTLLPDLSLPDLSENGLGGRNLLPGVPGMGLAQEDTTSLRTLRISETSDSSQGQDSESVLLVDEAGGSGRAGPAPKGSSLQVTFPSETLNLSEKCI
Format: cell-based
Description: Agonist Activity Measurement Using Human EP4 Receptor Expressing Cells
In order to investigate EP4 receptor agonist activity of the compounds of the present invention, cAMP production was measured by using HEK293 in which the human EP4 receptor was stably expressed.
As a result of searching for prostaglandin E receptors using Refseq Database, the gene information of human EP4 (NM_000958) receptor was obtained. On the basis of the sequence information, the human EP4 receptor gene was cloned by PCR using human cDNA as a template in a conventional manner to establish HEK293 in which the human EP4 receptor was stably expressed. These cells were inoculated on a 96-well poly-D-lysine coated plate at a density of 2×10^4 cells/well, and cultured for 1 day. The medium in the wells was removed by aspiration, 80 μL of Dulbecco's modified Eagle's medium was added to each well, and the cells were incubated at 37° C. for 15 minutes. Then, 20 μL of an assay medium (Dulbecco's modified Eagle's medium containing 100 mM HEPES and 1 mM IBMX) containing PGE2 or a test compound (at 5-fold concentration of the final concentration) was added to start the reaction, and the reaction was allowed at 37° C. for 30 minutes. Then, the medium was removed by aspiration, and the reaction was terminated by adding 100 μL of Assay/Lysis Buffer included in cAMP Screen Kit (produced by Applied Biosystems). Then, the cells were incubated at 37° C. for 30 minutes, and used as a sample for cAMP quantification. By using this sample, amount of cAMP in the sample was quantified according to the method attached to cAMP Screen Kit.

increase of cAMP | SMILES
Increase of cAMP was observed | O=C(O)c1ccc(CCN2C(=O)CCCN2CCC(O)c2ccc(F)cc2)cc1 (stereo not shown) [IAH-H003, 4-(2-{2-[3-hydroxy-3-(4-fluorophenyl)propyl]-6-oxotetrahydro-pyridazin-1-yl}ethyl)benzoic acid]
Increase of cAMP was observed | O=C(O)COc1cccc(CN2C(=O)CCCN2CCC(O)Cc2cccc(C(F)(F)F)c2)c1 (stereo not shown) [ICH-H001, 2-{3-[(2-{3-hydroxy-4-[3-(trifluoromethyl)phenyl]butyl}-6-oxotetrahydropyridazin-1-yl)methyl]phenyloxy}acetic acid]
Increase of cAMP was observed | O=C(O)c1ccc(CCN2C(=O)CCCN2CCC(O)Cc2cccc(Cl)c2)cc1 (stereo not shown) [IAH-H024, 4-[2-(2-{4-[3-chlorophenyl]-3-hydroxybutyl}-6-oxotetrahydropyridazin-1-yl)ethyl]benzoic acid]
Increase of cAMP was observed | O=C(O)c1ccc(CCN2C(=O)CCCN2CCC(O)Cc2cccc(C(F)(F)F)c2)cc1 (stereo not shown) [IAH-H001, 4-[2-(2-{3-hydroxy-4-[3-(trifluoromethyl)phenyl]butyl}-6-oxotetrahydropyridazin-1-yl)ethyl]benzoic acid]
Increase of cAMP was observed | O=C(O)c1ccc(CCN2C(=O)CCCN2CCC(O)c2cccc(-c3ccc(F)cc3)c2)cc1 (stereo not shown) [IAH-H004, 4-[2-(2-{3-hydroxy-3-[3-(4-fluorophenyl)phenyl]propyl}-6-oxotetrahydropyridazin-1-yl)ethyl]benzoic acid]
Increase of cAMP was observed | O=C(O)CCc1cccc(CN2C(=O)CCCN2CCC(O)Cc2cccc(C(F)(F)F)c2)c1 (stereo not shown) [IPH-H001, 3-{3-[(2-{3-hydroxy-4-[3-(trifluoromethyl)phenyl]butyl}-6-oxotetrahydropyridazin-1-yl)methyl]phenyl}propionic acid]

Further lines, the compound ahead of its results:

SMILES | increase of cAMP
O=C(O)c1cccc(CCCN2C(=O)CCCN2CCC(O)Cc2cccc(C(F)(F)F)c2)c1 (stereo not shown) [IFH-H001, 3-[3-(2-{3-hydroxy-4-[3-(trifluoromethyl)phenyl]butyl}-6-oxo-tetrahydropyridazin-1-yl)propyl]benzoic acid] | Increase of cAMP was observed
O=C(O)c1ccc(CCN2C(=O)CCCN2CCC(O)c2ccccc2)cc1 (stereo not shown) [IAH-H002] | Increase of cAMP was observed
COc1cccc(CC(O)CCN2CCCC(=O)N2CCc2ccc(C(=O)O)cc2)c1 (stereo not shown) [IAH-H005, 4-(2-{2-[3-hydroxy-4-(3-methoxyphenyl)butyl]-6-oxotetrahydro-pyridazin-1-yl}ethyl)benzoic acid] | Increase of cAMP was observed
O=C(O)C=Cc1cccc(CN2C(=O)CCCN2CCC(O)Cc2cccc(C(F)(F)F)c2)c1 (stereo not shown) [IOH-H001, 3-{3-[(2-{3-hydroxy-4-[3-(trifluoromethyl)phenyl]butyl}-6-oxotetrahydropyridazin-1-yl)methyl]phenyl}acrylic acid] | Increase of cAMP was observed
O=C(O)Cc1cccc(CN2C(=O)CCCN2CCC(O)Cc2cccc(C(F)(F)F)c2)c1 (stereo not shown) [ILH-H001, 2-{3-[(2-{3-hydroxy-4-[3-(trifluoromethyl)phenyl]butyl}-6-oxotetrahydropyridazin-1-yl)methyl]phenyl}acetic acid] | Increase of cAMP was observed
O=C(O)c1ccc(CCCN2C(=O)CCCN2CCC(O)Cc2cccc(C(F)(F)F)c2)o1 (stereo not shown) [IHH-H001, 5-[3-(2-{3-hydroxy-4-[3-(trifluoromethyl)phenyl]butyl}-6-oxotetrahydropyridazin-1-yl)propyl]furan-2-carboxylic acid] | Increase of cAMP was observed
O=C(O)c1cccc(OCCN2C(=O)CCCN2CCC(O)Cc2cccc(C(F)(F)F)c2)c1 (stereo not shown) [IDH-H001, 3-[2-(2-{3-hydroxy-4-[3-(trifluoromethyl)phenyl]butyl}-6-oxotetrahydropyridazin-1-yl)ethyloxy]benzoic acid] | Increase of cAMP was observed
O=C(O)Cc1ccc(CN2C(=O)CCCN2CCC(O)Cc2cccc(C(F)(F)F)c2)cc1 (stereo not shown) [IKH-H001, 2-{4-[(2-{3-hydroxy-4-[3-(trifluoromethyl)phenyl]butyl}-6-oxotetrahydropyridazin-1-yl)methyl]phenyl}acetic acid] | Increase of cAMP was observed
O=C(O)c1ccc(CCCN2C(=O)CCCN2CCC(O)Cc2cccc(C(F)(F)F)c2)cc1 (stereo not shown) [IGH-H001, 4-[3-(2-{3-hydroxy-4-[3-(trifluoromethyl)phenyl]butyl}-6-oxotetrahydropyridazin-1-yl)propyl]benzoic acid] | Increase of cAMP was observed
O=C(O)c1ccc(CCN2C(=S)CCCN2CCC(O)Cc2cccc(C(F)(F)F)c2)cc1 (stereo not shown) [ITH-H001, 4-[2-(2-{3-hydroxy-4-[3-(trifluoromethyl)phenyl]butyl}-6-thioxotetrahydropyridazin-1-yl)ethyl]benzoic acid] | Increase of cAMP was observed
O=C(O)c1ccc(OCCN2C(=O)CCCN2CCC(O)Cc2cccc(C(F)(F)F)c2)cc1 (stereo not shown) [IEH-H001, 4-[2-(2-{3-hydroxy-4-[3-(trifluoromethyl)phenyl]butyl}-6-oxo-tetrahydropyridazin-1-yl)ethyloxy]benzoic acid] | Increase of cAMP was observed

What follows are compounds tested on rat bone marrow cells (assay: Bone nodule formation action in rat bone marrow cells). Conditions: concentration ranging from 1 nM to 10 μM; von Kossa staining 21 to 28 days after addition.
Format: cell-based
Description: Bone Nodule Formation Action in Rat Bone Marrow Cells
In order to investigate osteogenesis promoting action of the compounds of the present invention, the compounds were made to act on cultured rat bone marrow cells, and the number of formed bone nodule was counted.
As rat bone marrow cells, mesenchymal cells (KEM100) derived from rat bone marrow purchased from Dainippon Pharmaceutical were used. The cells stored in liquid nitrogen were thawed at 37° C., then suspended in a phosphate-buffered saline, and centrifuged at 900 rpm for 5 minutes. The supernatant was removed, and the cells were suspended again in a MEM culture medium (produced by GIBCO) containing 10% fetal bovine serum (produced by GIBCO). After the number of cells was counted, the cells were inoculated on a 12-well plate (produced by IWAKI) at a cell density of 1×10^4 cells/cm^2, and cultured at 37° C. in a 5% CO2 incubator. From the next day of the inoculation, the medium was exchanged with the α MEM culture medium containing 10% fetal bovine serum every 2 or 3 days, and the cells were proliferated to the confluent state. The addition of the compound was conducted from the next day after the cells reached confluent. […]

SMILES | bone nodule formation promoting action (number of mineralized bone nodule formed)
O=C(O)c1ccc(CCN2C(=O)CCCN2CCC(O)Cc2cccc(C(F)(F)F)c2)cc1 (stereo not shown) [IAH-H001, 4-[2-(2-{3-hydroxy-4-[3-(trifluoromethyl)phenyl]butyl}-6-oxotetrahydropyridazin-1-yl)ethyl]benzoic acid] | exhibited an bone nodule formation promoting action in a dose-dependent manner

Same assay, conditions: rat bone marrow cells, 1 nM to 10 μM

SMILES | cytotoxicity
O=C(O)c1ccc(CCN2C(=O)CCCN2CCC(O)Cc2cccc(C(F)(F)F)c2)cc1 (stereo not shown) [IAH-H001, 4-[2-(2-{3-hydroxy-4-[3-(trifluoromethyl)phenyl]butyl}-6-oxotetrahydropyridazin-1-yl)ethyl]benzoic acid] | no cytotoxicity
